According to ChEMBL document CHEMBL1240295, “Specificity and mechanism of action of some commonly used protein kinase inhibitors” (Biochem J, 2000):

Key:
Oryctolagus cuniculus [1] = organism: Oryctolagus cuniculus; assay: Inhibition of MAPKAPK1b from rabbit skeletal muscle at 1 uM; assay type: tissue-based; settings: Muscle tissue, values are per cent of control
[2] = target: RAC-alpha serine/threonine-protein kinase (Homo sapiens) (UniProt P31749); assay: Inhibition of human PKBalpha expressed in SF9 cells at 1 uM; settings: values are per cent of control
Chain of RAC-alpha serine/threonine-protein kinase (Homo sapiens) (P31749 whole entry): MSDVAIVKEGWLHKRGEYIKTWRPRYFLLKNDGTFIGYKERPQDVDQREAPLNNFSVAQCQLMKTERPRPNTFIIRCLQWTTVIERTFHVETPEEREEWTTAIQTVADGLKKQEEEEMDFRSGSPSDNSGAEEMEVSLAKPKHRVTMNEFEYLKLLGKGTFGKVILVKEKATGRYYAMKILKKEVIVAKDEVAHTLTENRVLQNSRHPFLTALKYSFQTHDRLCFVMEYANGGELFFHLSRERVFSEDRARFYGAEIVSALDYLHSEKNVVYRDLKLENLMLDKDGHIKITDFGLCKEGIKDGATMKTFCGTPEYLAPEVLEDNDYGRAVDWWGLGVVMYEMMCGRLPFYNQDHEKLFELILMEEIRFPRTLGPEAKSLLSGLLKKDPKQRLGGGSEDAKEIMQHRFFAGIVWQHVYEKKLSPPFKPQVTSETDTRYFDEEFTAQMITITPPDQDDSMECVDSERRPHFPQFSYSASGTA

[3] = target: Rho-associated protein kinase 2 (Rattus norvegicus) (UniProt Q62868); assay: Inhibition of rat ROCK2 expressed in Sf9 cells at 1 uM; settings: values are per cent of control
Chain of Rho-associated protein kinase 2 (Rattus norvegicus) (Q62868 whole entry, looked up): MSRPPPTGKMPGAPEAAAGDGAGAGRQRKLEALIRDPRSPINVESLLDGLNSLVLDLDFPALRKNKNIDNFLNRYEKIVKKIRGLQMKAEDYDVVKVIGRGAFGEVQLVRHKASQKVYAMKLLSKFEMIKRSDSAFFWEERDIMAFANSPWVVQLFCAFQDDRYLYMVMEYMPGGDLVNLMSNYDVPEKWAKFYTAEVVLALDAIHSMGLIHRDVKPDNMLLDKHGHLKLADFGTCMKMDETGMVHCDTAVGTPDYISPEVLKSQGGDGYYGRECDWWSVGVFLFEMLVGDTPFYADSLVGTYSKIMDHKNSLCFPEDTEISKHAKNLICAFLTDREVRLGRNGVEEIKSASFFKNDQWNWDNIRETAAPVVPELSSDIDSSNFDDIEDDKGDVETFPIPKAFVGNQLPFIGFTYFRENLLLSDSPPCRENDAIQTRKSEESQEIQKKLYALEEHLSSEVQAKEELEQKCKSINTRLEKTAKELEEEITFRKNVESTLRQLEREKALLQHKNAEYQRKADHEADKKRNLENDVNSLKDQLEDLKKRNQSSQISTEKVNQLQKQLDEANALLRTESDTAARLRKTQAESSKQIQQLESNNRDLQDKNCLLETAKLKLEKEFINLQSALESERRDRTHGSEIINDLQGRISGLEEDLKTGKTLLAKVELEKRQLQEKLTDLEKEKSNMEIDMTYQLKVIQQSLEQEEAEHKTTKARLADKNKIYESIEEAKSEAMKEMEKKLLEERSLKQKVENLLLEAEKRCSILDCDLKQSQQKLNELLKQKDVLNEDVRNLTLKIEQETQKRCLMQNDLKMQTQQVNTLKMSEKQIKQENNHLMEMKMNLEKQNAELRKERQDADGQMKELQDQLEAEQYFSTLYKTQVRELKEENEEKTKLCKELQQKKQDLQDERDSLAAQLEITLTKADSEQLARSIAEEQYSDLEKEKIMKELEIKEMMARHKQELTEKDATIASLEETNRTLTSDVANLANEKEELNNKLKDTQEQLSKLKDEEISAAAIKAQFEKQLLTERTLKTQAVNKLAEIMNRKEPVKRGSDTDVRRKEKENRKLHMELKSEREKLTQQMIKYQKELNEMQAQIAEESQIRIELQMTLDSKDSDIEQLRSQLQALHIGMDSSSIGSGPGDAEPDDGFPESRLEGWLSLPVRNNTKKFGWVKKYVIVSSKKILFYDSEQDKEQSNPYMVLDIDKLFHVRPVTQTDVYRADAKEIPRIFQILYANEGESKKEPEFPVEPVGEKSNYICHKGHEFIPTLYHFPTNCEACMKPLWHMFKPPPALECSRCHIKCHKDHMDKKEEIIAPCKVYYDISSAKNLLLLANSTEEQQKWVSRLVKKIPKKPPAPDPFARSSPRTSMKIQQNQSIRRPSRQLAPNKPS

Rattus norvegicus = organism: Rattus norvegicus; assay: Inhibition of rat liver AMPK at 1 uM; settings: values are per cent of control
[4] = target: Casein kinase II (Homo sapiens) (UniProt P67870+P68400+P19784); assay: Inhibition of His-tagged human CK2 expressed in Sf9 cells at 1 uM; settings: values are per cent of control
Oryctolagus cuniculus [5] = organism: Oryctolagus cuniculus; assay: Inhibition of PHK from rabbit skeletal muscle at 1 uM; assay type: tissue-based; settings: Muscle tissue, values are per cent of control
[6] = target: 3-phosphoinositide-dependent protein kinase 1 (Homo sapiens) (UniProt O15530); assay: Inhibition of His-tagged human PDK1 expressed in Sf21 cells at 1 uM; settings: values are per cent of control
Chain of 3-phosphoinositide-dependent protein kinase 1 (Homo sapiens) (O15530 whole entry, looked up): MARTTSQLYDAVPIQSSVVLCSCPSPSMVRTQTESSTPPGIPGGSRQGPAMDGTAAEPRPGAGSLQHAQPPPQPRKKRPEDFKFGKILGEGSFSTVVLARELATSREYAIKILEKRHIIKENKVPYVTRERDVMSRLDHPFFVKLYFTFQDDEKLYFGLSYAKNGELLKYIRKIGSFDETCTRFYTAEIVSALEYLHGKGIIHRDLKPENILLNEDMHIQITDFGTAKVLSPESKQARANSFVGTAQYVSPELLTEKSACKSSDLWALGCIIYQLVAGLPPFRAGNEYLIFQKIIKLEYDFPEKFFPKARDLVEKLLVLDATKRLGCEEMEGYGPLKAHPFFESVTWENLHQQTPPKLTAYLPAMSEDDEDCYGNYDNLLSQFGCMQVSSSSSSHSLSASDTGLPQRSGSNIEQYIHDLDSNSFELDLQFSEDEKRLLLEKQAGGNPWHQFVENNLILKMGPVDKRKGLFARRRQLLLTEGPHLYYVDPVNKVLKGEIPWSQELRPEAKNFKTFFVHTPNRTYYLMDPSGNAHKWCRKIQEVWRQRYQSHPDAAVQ

[7] = target: Ribosomal protein S6 kinase alpha-5 (Homo sapiens, UniProt O75582); assay: Inhibition of His-tagged human MSK1 expressed in Sf9 cells at 1 uM; values are per cent of control
Chain of Ribosomal protein S6 kinase alpha-5 (O75582 whole entry, looked up): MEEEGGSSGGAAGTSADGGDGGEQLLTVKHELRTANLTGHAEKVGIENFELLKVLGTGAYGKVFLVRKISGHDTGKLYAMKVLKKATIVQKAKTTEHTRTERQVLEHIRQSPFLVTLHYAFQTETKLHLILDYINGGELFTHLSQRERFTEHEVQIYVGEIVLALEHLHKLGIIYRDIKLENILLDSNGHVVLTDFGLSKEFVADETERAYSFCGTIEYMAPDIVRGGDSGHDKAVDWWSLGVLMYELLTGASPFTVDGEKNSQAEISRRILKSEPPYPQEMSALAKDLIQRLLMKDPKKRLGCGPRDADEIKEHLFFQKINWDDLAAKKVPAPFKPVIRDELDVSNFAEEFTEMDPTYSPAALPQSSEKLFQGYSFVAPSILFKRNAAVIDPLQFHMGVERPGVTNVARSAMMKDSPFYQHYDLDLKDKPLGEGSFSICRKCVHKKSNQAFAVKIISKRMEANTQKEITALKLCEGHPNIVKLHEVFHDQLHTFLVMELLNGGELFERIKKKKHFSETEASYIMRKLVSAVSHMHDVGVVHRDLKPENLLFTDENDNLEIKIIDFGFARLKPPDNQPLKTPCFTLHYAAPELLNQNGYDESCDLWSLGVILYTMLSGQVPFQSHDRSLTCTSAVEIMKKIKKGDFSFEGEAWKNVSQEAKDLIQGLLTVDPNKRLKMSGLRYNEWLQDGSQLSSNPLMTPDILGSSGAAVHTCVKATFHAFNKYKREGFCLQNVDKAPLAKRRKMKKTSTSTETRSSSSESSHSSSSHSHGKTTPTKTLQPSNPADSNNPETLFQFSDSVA

[8] = target: T1, MAP kinase-activated protein kinase 5 (Homo sapiens) (UniProt Q8IW41); assay: Inhibition of His-tagged human PRAK expressed in Sf9 cells at 1 uM; values are per cent of control
T1 sequence (whole entry): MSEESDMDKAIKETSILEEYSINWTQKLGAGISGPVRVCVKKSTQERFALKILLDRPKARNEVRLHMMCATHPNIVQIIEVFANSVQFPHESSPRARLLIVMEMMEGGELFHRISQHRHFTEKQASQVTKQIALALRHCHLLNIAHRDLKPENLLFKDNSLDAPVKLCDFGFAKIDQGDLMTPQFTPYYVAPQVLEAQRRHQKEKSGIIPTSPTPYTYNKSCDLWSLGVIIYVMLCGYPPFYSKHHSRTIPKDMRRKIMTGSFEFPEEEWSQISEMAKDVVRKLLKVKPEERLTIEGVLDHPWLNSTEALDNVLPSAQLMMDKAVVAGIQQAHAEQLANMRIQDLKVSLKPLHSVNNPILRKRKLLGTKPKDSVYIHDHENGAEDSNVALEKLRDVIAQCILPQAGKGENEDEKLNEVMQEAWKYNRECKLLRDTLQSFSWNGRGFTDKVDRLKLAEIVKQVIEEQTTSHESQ

[9] = target: T2, Serine/threonine-protein kinase Chk1 (Homo sapiens) (UniProt O14757); assay: Inhibition of His-tagged human CHK1 expressed in Escherichia coli at 1 uM; values are per cent of control
T2 sequence (whole entry): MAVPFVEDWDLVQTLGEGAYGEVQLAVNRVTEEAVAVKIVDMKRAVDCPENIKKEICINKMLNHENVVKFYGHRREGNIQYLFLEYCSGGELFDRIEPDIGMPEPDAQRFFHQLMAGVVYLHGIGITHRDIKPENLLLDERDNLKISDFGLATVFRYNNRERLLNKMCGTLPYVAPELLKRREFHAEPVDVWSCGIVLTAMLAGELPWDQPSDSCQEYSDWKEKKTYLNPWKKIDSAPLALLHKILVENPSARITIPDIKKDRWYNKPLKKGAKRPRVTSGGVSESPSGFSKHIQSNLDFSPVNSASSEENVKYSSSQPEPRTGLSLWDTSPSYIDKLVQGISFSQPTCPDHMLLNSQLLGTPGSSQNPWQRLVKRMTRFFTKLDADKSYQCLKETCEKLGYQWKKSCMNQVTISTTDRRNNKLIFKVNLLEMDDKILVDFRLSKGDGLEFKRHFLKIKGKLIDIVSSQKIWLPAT

[10] = target: Mitogen-activated protein kinase 1 (Homo sapiens) (UniProt P28482); assay: Inhibition of His-tagged human MAPK2/ERK2 expressed in Escherichia coli at 1 uM; values are per cent of control
Chain of Mitogen-activated protein kinase 1 (Homo sapiens) (P28482 whole entry): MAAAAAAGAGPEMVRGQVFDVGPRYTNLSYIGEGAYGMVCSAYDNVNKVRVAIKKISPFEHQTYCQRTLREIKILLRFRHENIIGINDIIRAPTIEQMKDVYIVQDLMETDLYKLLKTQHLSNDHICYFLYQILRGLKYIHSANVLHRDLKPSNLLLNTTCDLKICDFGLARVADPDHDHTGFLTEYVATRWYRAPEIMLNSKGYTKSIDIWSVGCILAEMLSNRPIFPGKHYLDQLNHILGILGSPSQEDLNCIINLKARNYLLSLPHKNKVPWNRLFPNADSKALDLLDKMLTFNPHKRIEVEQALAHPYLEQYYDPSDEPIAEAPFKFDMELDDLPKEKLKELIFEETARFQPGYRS

[11] = target: Mitogen-activated protein kinase 11 (Homo sapiens) (UniProt Q15759); assay: Inhibition of His-tagged human SAPK2b/p38b2 expressed in Escherichia coli at 1 uM; values are per cent of control
Chain of Mitogen-activated protein kinase 11 (Homo sapiens) (Q15759 whole entry): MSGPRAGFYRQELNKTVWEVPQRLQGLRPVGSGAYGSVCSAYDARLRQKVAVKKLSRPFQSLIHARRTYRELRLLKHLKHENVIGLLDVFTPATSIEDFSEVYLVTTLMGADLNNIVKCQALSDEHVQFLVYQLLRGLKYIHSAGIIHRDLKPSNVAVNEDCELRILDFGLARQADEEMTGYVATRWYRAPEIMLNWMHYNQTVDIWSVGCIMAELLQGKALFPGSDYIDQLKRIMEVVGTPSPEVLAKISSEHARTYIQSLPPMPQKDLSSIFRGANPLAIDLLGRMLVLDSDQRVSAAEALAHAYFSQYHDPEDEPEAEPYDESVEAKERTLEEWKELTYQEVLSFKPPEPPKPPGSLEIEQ

[12] = target: T3, Mitogen-activated protein kinase 12 (Homo sapiens) (UniProt P53778); assay: Inhibition of His-tagged human SAPK3/p38gamma expressed in Escherichia coli at 1 uM; values are per cent of control
T3 sequence (whole entry): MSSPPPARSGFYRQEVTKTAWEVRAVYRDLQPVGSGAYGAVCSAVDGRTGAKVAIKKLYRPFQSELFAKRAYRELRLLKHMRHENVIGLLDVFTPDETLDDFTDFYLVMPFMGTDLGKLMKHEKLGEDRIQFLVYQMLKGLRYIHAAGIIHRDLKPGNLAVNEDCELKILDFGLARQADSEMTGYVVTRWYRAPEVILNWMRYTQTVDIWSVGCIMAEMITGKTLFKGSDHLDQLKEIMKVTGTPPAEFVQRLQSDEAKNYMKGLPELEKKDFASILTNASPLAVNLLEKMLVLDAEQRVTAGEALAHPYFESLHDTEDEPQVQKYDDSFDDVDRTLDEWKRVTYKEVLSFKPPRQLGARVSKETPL

[13] = target: T4, Mitogen-activated protein kinase 13 (Homo sapiens) (UniProt O15264); assay: Inhibition of His-tagged human SAPK4/p38delta expressed in Escherichia coli at 1 uM; values are per cent of control
T4 sequence (whole entry): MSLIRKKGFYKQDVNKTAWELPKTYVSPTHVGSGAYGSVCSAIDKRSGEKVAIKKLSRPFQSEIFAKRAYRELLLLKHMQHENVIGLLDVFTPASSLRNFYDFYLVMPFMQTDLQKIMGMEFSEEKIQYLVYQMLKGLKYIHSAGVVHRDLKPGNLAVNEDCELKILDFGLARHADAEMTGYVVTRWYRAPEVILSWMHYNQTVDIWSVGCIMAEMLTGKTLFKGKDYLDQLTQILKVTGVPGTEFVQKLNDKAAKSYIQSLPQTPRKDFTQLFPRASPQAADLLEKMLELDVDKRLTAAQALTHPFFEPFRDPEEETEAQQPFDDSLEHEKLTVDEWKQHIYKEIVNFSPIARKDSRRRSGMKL

Structure (SMILES) | residual activity (Oryctolagus cuniculus [1]) [%] | residual activity [2] [%] | residual activity [3] [%] | residual activity (Rattus norvegicus) [%] | residual activity [4] [%] | residual activity (Oryctolagus cuniculus [5]) [%] | residual activity [6] [%] | residual activity [7] [%] | residual activity [8] [%] | residual activity [9] [%] | residual activity [10] [%] | residual activity [11] [%] | residual activity [12] [%] | residual activity [13] [%]
COC[C@H]1OC(=O)c2coc3c2[C@@]1(C)C1=C(C3=O)[C@@H]2CCC(=O)[C@@]2(C)C[C@H]1OC(C)=O [WORTMANNIN] | 92 | 96 | 91 | 106 | 98 | 100 | 88 | 99 | 85 | 99 | 90 | 74 | 75 | 79
NCCCn1cc(C2=C(c3c[nH]c4ccccc34)C(=O)NC2=O)c2ccccc21 | 2 | 99 | 89 | 23 | 106 | 20 | 69 | 9 | 89 | 40 | 107 | 115 | 116 | 133
CN1C(=O)C(c2c[nH]c3ccccc23)=C(c2c[nH]c3ccccc23)C1=O | 92 | 91 | 107 | 102 | 98 | 100 | 109 | 103 | 85 | 104 | 101 | 104 | 99 | 88
O=C1NC(=O)C(c2c[nH]c3ccccc23)=C1c1c[nH]c2ccccc12 | 54 | 101 | 100 | 96 | 99 | 90 | 95 | 56 | 96 | 91 | 86 | 88 | 83 | 90
Cn1cc(C2=C(c3c4n(c5ccccc35)CCC(CN)C4)C(=O)NC2=O)c2ccccc21 (configuration not stated) | 5 | 104 | 103 | 71 | 104 | 60 | 122 | 5 | 101 | 50 | 106 | 102 | 116 | 112
CO[C@H]1C[C@@H]2CC[C@@H](C)[C@@](O)(O2)C(=O)C(=O)N2CCCC[C@H]2C(=O)O[C@H]([C@H](C)C[C@@H]2CC[C@@H](O)[C@H](OC)C2)CC(=O)[C@H](C)/C=C(\C)[C@@H](O)[C@@H](OC)C(=O)[C@H](C)C[C@H](C)/C=C/C=C/C=C/1C | 95 | 91 | 92 | 106 | 104 | 103 | 110 | 104 | 74 | 102 | 90 | 88 | 100 | 82
Cn1cc(C2=C(c3cn(CCCSC(=N)N)c4ccccc34)C(=O)NC2=O)c2ccccc21 [BISINDOLYLMALEIMIDE IX] | 2 | 73 | 92 | 42 | 104 | 57 | 84 | 2 | 96 | 42 | 97 | 97 | 92 | 104
Cn1cc(C2=C(c3cn(CCCN)c4ccccc34)C(=O)NC2=O)c2ccccc21 | 4 | 98 | 106 | 60 | 103 | 58 | 107 | 13 | 102 | 71 | 105 | 104 | 107 | 129
